The target of test [1] is T1, Acetylcholinesterase (Homo sapiens, UniProt P22303). The test can be described thus: In vitro acetyl cholinesterase (AChE-I) inhibitory activity to determine its ability to reverse the cholinergic deficit characteristic of AD.
For test [2], the species on record is Rattus norvegicus.
Description: Concentration required to potentiate the contraction of isolated rat ileum produced by 1 x 10 e -7 M Ach by 20 %
Test [3] has as its target T2, Muscarinic acetylcholine receptor M1 (Mus musculus, UniProt P12657).
T2 sequence (P12657 whole entry): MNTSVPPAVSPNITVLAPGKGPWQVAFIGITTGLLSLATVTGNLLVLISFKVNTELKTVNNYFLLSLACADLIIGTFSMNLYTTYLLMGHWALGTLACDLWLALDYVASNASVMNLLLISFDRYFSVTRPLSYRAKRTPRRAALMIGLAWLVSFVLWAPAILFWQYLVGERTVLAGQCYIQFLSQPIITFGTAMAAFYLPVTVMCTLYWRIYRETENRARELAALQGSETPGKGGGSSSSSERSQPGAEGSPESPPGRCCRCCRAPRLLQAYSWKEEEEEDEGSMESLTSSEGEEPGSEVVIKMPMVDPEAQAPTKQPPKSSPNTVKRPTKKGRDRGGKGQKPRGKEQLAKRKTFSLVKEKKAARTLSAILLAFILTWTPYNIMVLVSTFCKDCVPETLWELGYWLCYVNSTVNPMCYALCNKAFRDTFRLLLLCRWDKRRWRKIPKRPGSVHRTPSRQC
Description: biochemical.
Description: Binding affinity against mouse Muscarinic acetylcholine receptor M1 using cerebral cortex and [3H]pirenzepine

Test [4] has as its target Cholinesterases; ACHE & BCHE (Homo sapiens) (UniProt P06276+P22303). The test can be described thus: Ratio of IC50(BChE-I) to IC50(AChE-I). The test is classed as protein assay.
Test [5] relates to Mus musculus. The test can be described thus: Effect on brain acetylcholine concentration in mice after intraperitoneal administration of 80% lethal dose (140 mg/kg). The test is classed as functional.
For test [6], the system named is Mus musculus. The test can be described thus: Effect on brain acetylcholine concentration in mice after intraperitoneal administration of 40% lethal dose (68 mg/kg). Type of test: functional.
For test [7], the system named is Mus musculus. The test can be described thus: Effect on brain acetylcholine concentration in mice after intraperitoneal administration of 60% lethal dose (102 mg/kg). The test is classed as functional.
Test [8] is filed under the species Rattus norvegicus. Description: Ratio of IC50 (muscarinic acetylcholine receptor M2) to IC50 (muscarinic acetylcholine receptor M1).
For test [9], the target named is T1, Acetylcholinesterase.
Description: In vitro inhibition of human acetylcholinesterase.
For the next test, the target named is Cholinesterase (Homo sapiens, UniProt P06276).
Sequence of Cholinesterase (P06276 whole entry): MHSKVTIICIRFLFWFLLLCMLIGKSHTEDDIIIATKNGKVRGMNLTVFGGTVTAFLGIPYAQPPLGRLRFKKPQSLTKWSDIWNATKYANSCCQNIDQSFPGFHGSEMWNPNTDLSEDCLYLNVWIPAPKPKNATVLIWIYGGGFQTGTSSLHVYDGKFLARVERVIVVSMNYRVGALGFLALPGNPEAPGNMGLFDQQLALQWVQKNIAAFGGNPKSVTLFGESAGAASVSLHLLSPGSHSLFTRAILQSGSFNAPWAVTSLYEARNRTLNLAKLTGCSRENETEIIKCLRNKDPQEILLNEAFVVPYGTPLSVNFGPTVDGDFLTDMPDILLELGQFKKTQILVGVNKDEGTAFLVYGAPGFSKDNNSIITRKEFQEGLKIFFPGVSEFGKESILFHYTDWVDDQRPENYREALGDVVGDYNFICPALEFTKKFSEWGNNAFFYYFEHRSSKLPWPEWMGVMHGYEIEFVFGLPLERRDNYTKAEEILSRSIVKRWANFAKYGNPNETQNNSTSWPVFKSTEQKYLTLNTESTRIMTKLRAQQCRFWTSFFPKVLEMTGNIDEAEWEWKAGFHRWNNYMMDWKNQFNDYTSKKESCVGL
Test [10] addresses T3, Muscarinic acetylcholine receptor M2 (Rattus norvegicus, UniProt P10980).
T3 sequence (P10980 whole entry): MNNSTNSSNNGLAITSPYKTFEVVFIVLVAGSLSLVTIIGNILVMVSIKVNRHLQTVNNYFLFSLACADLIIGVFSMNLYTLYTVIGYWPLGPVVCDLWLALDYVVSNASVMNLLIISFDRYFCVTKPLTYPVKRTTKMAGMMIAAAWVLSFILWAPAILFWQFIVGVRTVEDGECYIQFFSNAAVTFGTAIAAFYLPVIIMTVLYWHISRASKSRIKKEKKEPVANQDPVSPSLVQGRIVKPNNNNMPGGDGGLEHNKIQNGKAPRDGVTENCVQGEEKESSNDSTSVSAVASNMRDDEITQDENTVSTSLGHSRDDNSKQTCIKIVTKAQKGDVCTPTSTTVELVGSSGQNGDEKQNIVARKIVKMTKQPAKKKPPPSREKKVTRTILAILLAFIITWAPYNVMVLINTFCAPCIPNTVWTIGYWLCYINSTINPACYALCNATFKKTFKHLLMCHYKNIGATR
Description: Inhibition of [3H]N-methylscopolamine to rat muscarinic acetylcholine receptor M2 from heart tissue

Test [11] concerns the target T4, Muscarinic acetylcholine receptor M2 (Mus musculus, UniProt Q9ERZ4).
T4 sequence (Q9ERZ4 whole entry): T3 sequence (P10980 whole entry) with V270G, R316K, K321R, A331T, V336A
Description: biochemical.

The target of test [12] is T4, Muscarinic acetylcholine receptor M2. The test can be described thus: biochemical. This is another data set of the same source.
In test [13] the target is T2, Muscarinic acetylcholine receptor M1. The test can be described thus: biochemical. This is another data set of the same source.
Description: Binding affinity against mouse muscarinic acetylcholine receptor M1 using cerebral cortex and [3H]pirenzepine
The target in test [14] is T4, Muscarinic acetylcholine receptor M2. Description: Ability to displace [3H]methylscopolamine ([3H]NMS) from mouse cerebral cortex. The test is classed as tissue-based.
Test [15] has the same target. The test can be described thus: Ability to displace [3H]oxotremorine ([3H]OXO-M) from mouse cerebral cortex. Type of test: tissue-based.

SMILES strings stand for the structures. Changes are numbered by the printed parent chain.

T1 sequence (P22303 whole entry): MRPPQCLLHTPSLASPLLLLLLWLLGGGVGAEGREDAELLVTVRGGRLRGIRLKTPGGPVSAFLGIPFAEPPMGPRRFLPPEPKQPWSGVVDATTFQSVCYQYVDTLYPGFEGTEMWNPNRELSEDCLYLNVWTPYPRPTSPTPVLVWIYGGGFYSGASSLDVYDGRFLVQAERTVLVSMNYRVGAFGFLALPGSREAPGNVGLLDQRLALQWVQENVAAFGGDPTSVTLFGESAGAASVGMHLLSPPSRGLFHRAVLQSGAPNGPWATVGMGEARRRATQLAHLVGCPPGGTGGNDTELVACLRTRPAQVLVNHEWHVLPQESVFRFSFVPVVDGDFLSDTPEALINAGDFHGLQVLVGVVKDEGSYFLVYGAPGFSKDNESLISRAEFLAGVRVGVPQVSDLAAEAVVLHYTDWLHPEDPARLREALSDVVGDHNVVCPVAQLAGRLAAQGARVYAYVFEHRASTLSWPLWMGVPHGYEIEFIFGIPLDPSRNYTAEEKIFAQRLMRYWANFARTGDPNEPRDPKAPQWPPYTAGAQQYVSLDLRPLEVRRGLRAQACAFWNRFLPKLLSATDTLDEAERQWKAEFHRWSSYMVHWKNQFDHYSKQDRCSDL
Sequence of Cholinesterases; ACHE & BCHE (Homo sapiens) (P06276 whole entry, looked up): as the sequence (P06276 whole entry) above
Sequence of Cholinesterases; ACHE & BCHE (Homo sapiens) (P22303 whole entry, looked up): as the sequence (P22303 whole entry) above

The IC50 is the concentration at which inhibition is half-maximal. As to `CN(C)Cc1ccc(CSCCNc2nnccc2[N+](=O)[O-])o1`, the results for the IC50 (against Acetylcholinesterase [1]; in test [3]) were 0.47 µM and 0.97 µM, respectively. In the test listed under Rattus norvegicus [2], this compound returned an Ileal activity of less than 0.1 µM.

What is called Ki is the equilibrium dissociation constant of an inhibitor or competing ligand from its target. Turning to `CN(C)Cc1ccc(CSCCNc2ccc([N+](=O)[O-])cc2[N+](=O)[O-])o1`, the Ratio in [4] was found to be 9.2; in the test filed under Rattus norvegicus [8], 4.1. Moreover, the “% of control” value was 128.4% in the test with Mus musculus [5], 110.8% with Mus musculus [6] and 120.4% in the test with Mus musculus [7]. The IC50 against Acetylcholinesterase [9] came out at 0.2 µM; against Cholinesterase, 1.8 µM; in test [10], 5.7 µM; in test [13] it was 1.4 µM. For the same compound, the Ileal activity in the test filed under Rattus norvegicus [2] is less than 0.02 µM. For the same compound, the Ki is 12 µM in test [11] and 0.87 µM in test [12].

Regarding `C[N+](C)(C)CCOC(N)=O` [CARBACHOL], the Ki in [14] was 66 µM; in test [15], 0.008 µM.

(Values after ChEMBL document CHEMBL1125532, “Synthesis and cholinergic properties of N-aryl-2-[[[5-[(dimethylamino)methyl]-2-furanyl]methyl]thio]ethylamino analogs of ranitidine” (J Med Chem, 1992).)
